In series [1] the test system is CD-1 mice. In words: Antinociception after s.c. administration, radiant heat tail-flick test. The format is in vivo. The conditions noted are these: mouse tail-flick test; for ED50 (95% confidence limits): at the time of peak effect. (Thermal pain tests record how soon the animal reacts.)
Series [2] has as its system CD-1 mice. Nature of the series: Antinociception after i.p. administration, 55 °C tail withdrawal. It is filed as in vivo, mouse. The following applies: for Time of maximum antinociceptive activity post i.p. injection: mice; for Antinociceptive effect after i.p. injection, in words: Figure 3; for Antinociceptive activity, times higher than the antinociception of morphine: at the plateau decline phase.

The conditions of series [3]: incubated in sheep blood; cited from earlier work.
In series [4] the test system is mouse brain (blood-brain barrier). Nature of the series: Blood-to-brain influx, multiple time regression of [125I]-peptides. The conditions noted are these: for Vbr (brain distribution volume): [125I]-labelled, CD-1 mice, mean ± SEM.
Series [5] relates to mouse tissues (spleen, liver, lungs, heart, kidneys, serum). Nature of the series: In vivo tissue biodistribution of [125I]-peptides. The following applies: for Serum levels: 15 min after administration, rank in words.
Series [6] concerns the target T1, MOR (Rattus norvegicus, UniProt P33535). In words: MOR receptor binding, displacement of [3H]DAMGO from rat brain membranes. The following applies: ratio of MOR/DOR/KOR Ki. A general note: Displacement assays read how much labelled ligand stays bound in the presence of the test substance.
In series [7] the test system is DOR (mouse vas deferens, MVD). Nature of the series: Mouse vas deferens. It is filed as biochemical.
The subject of series [8] is MOR (guinea pig ileum, GPI). In words: Guinea pig ileum. It is filed as biochemical.
Series [9] has as its target T1, MOR. The following applies: ratio of MOR/DOR/KOR Ki; cited from earlier work.
Series [10] deals with MOR (guinea pig ileum, GPI). The conditions noted are these: read-out: GPI (μ) IC50; cited from earlier work.
Series [11] concerns DOR (mouse vas deferens, MVD). The following applies: read-out: MVD (δ) IC50; cited from earlier work.
The conditions of series [12]: cited from earlier work.

We go through 16 compounds from publication PMC3523097 (Journal of medicinal chemistry, 2012).

“And” between values parts separate entries of the source, which are not always exact repeats. Equal values may be shown once. “Also recorded” adds a separate entry of the source. Read-outs that look alike come from different tables or passages of the source. Non-standard residues stand in square brackets, D forms with d. Residues, ends and D or L forms follow the SMILES beside them. Dmt = Cc1cc(O)cc(C)c1C[C@H](N)C(=O)O; dCit = NC(=O)NCCC[C@@H](N)C(=O)O; Nle = CCCC[C@H](N)C(=O)O

For orientation: IC50 means the concentration at which inhibition is half-maximal.

T1 sequence (P33535 whole entry): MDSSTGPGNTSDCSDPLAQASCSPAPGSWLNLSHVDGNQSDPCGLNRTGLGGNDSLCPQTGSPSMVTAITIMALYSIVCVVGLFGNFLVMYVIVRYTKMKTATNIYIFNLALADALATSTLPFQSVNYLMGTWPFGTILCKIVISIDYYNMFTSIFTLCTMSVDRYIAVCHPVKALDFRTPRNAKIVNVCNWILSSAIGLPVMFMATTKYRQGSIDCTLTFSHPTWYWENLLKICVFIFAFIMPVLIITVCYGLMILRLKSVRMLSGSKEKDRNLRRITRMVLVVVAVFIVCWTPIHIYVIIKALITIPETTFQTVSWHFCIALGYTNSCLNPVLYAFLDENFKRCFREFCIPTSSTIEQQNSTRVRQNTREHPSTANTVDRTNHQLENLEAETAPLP

Turning to `CN1CC[C@]23c4c5ccc(O)c4O[C@H]2[C@@H](O)C=C[C@H]3[C@H]1C5` [Morphine, reference compound], in series [1] (from ED50), the “Relative potency to Morphine” value worked out at 1.

For `Cc1cc(O)cc(C)c1C[C@H](N)C(=O)N[C@H](CCCNC(=N)N)C(=O)N[C@@H](Cc1ccccc1)C(=O)N[C@@H](CCCCN)C(N)=O` [Peptide 1, H-Dmt-D-Arg-Phe-Lys-NH2, reference compound], in series [1], the “Duration of antinociceptive action” value was 6 to 7 h, the “Time of peak effect” value was determined as 2 h and the “ED50 (95% confidence limits)” value is listed as 0.15 (0.07-0.32) μmol/kg. For the same compound, the “Duration of antinociceptive action” value in [1] (listed as [Dmt^1]-DALDA) is recorded as above 7 h. Besides, in [2], the “Time of maximum antinociceptive activity post i.p. injection” value was 60 min. Moreover, the “t1/2 in sheep blood” value in [3] is 108 min. Further, the “Vbr (brain distribution volume)” value in series [4] was found to be 19.25 ± 1.02 µL/g. For the same compound, in series [5], the Serum levels entry is listed as “highest”.

`CCCC[C@H](NC(=O)[C@H](Cc1ccccc1)NC(=O)[C@@H](CCCN=C(N)N)NC(=O)[C@@H](N)Cc1c(C)cc(O)cc1C)C(N)=O` [Peptide 9, H-Dmt-D-Arg-Phe-Nle-NH2] (H-[Dmt][dR]F[Nle]-NH2): the “Vbr (brain distribution volume)” value in series [4] turned out to be 27.43 ± 4.80 µL/g. The Serum levels result in [5] is on record as “lowest”.

For the compound `CCCC[C@H](NC(=O)[C@H](Cc1ccccc1)NC(=O)[C@@H](CCCNC(=N)N)NC(=O)[C@@H](N)Cc1c(C)cc(O)cc1C)C(N)=O` [Peptide 9, H-Dmt-D-Arg-Phe-Nle-NH2] (H-[Dmt][dR]F[Nle]-NH2), in [1], the “Antinociceptive effect after s.c. administration, in words” value was “no dose-related antinociception; also recorded: failed to reach a 50% effect after s.c. administration of 6 μmol/kg” and the “ED50 (95% confidence limits)” value is above 6 µmol/kg. Further, the “Ki ratio μ/δ/κ” value in series [6] is given as 1/66/70. Further, in series [2], the “Antinociceptive effect after i.p. injection, in words” value is “relatively low antinociceptive activity”.

As for `Cc1cc(O)cc(C)c1C[C@H](N)C(=O)N[C@H](CCCNC(N)=O)C(=O)N[C@@H](Cc1ccccc1)C(=O)N[C@@H](CCCCN)C(N)=O` [Peptide 10, H-Dmt-D-Cit-Phe-Lys-NH2], in series [1], the “Duration of antinociceptive action” value was 2 to 3 h, the “Time of peak effect” value stood at 1 h and the “ED50 (95% confidence limits)” value is reported as 0.23 (0.10-0.55) μmol/kg. Moreover, the “Ki ratio μ/δ/κ” value in series [6] is 1/88/37. Moreover, the “Time of maximum antinociceptive activity post i.p. injection” value in series [2] was determined as 45 min. Also, the “Vbr (brain distribution volume)” value in [4] came to 27.12 ± 3.76 µL/g. For the same compound, the Serum levels result in series [5] is “intermediate”.

Take `CCCC[C@H](NC(=O)[C@H](Cc1ccccc1)NC(=O)[C@@H](CCCNC(N)=O)NC(=O)[C@@H](N)Cc1c(C)cc(O)cc1C)C(N)=O` [Peptide 11, H-Dmt-D-Cit-Phe-Nle-NH2] (H-[Dmt][dCit]F[Nle]-NH2): the “Ki ratio μ/δ/κ” value in series [6] is 1/5/125.

As to `Cc1cc(O)cc(C)c1C[C@H](N)C(=O)N[C@H](CCCNC(=N)N)C(=O)N[C@@H](Cc1ccccc1)C(=O)N(C)[C@@H](CCCCN)C(N)=O` [Peptide 12, H-Dmt-D-Arg-Phe-NMeLys-NH2], in [1], the “Duration of antinociceptive action” value is on record as above 7 h; the “Time of peak effect” value is 1 to 4 h and 2 h; the “ED50 (95% confidence limits)” value was 0.13 (0.06-0.30) μmol/kg. Further, the “Ki ratio μ/δ/κ” value in series [6] is 1/1190/216. Also, in series [2], the “Antinociceptive activity, times higher than the antinociception of morphine” value is given as 13 - 15 and the “Time of maximum antinociceptive activity post i.p. injection” value lay within 60 to 90 min. For the same compound, in series [4], the “Vbr (brain distribution volume)” value was 21.99 ± 2.81 µL/g. Moreover, the Serum levels entry in series [5] is recorded as “intermediate”.

For the compound `CCCC[C@@H](C(N)=O)N(C)C(=O)[C@H](Cc1ccccc1)NC(=O)[C@@H](CCCNC(=N)N)NC(=O)[C@@H](N)Cc1c(C)cc(O)cc1C` [Peptide 13, H-Dmt-D-Arg-Phe-NMeNle-NH2], in series [6], the “Ki ratio μ/δ/κ” value was 1/62/55.

In the case of `Cc1cc(O)cc(C)c1C[C@H](N)C(=O)N[C@H](CCCNC(N)=O)C(=O)N[C@@H](Cc1ccccc1)C(=O)N(C)[C@@H](CCCCN)C(N)=O` [Peptide 14, H-Dmt-D-Cit-Phe-NMeLys-NH2], in [1], the “Duration of antinociceptive action” value lay within 2 to 3 h, the “Time of peak effect” value was found to be 1 h and the “ED50 (95% confidence limits)” value is reported as 0.16 (0.07-0.36) μmol/kg. For the same compound, in [6], the “Ki ratio μ/δ/κ” value is on record as 1/42/12. Moreover, in series [2], the “Antinociceptive activity, times higher than the antinociception of morphine” value is reported as 13 - 15 and the “Time of maximum antinociceptive activity post i.p. injection” value was 60 to 90 min. The “Vbr (brain distribution volume)” value in series [4] came to 17.13 ± 2.36 µL/g. Also, the Serum levels result in [5] was “intermediate”.

In the case of `Cc1cc(O)cc(C)c1C[C@H](N)C(=O)N[C@H](CCCNC(=N)N)C(=O)N[C@H]1Cc2ccccc2CN([C@@H](CCCCN)C(N)=O)C1=O` [Peptide 16, H-Dmt-D-Arg-Aba-Lys-NH2], the “MVD (δ) IC25” value in series [7] (IC25 given instead of IC50) is 64 (IC25) nM.

Consider `CCCC[C@@H](C(N)=O)N1Cc2ccccc2C[C@H](NC(=O)[C@@H](CCCNC(=N)N)NC(=O)[C@@H](N)Cc2c(C)cc(O)cc2C)C1=O` [Peptide 17, H-Dmt-D-Arg-Aba-Nle-NH2], for which, in series [6], the “Ki ratio μ/δ/κ” value is on record as 1/17/3.

In the case of `CCCC[C@@H](C(N)=O)N1Cc2ccccc2C[C@H](NC(=O)[C@@H](CCCNC(N)=O)NC(=O)[C@@H](N)Cc2c(C)cc(O)cc2C)C1=O` [Peptide 19, H-Dmt-D-Cit-Aba-Nle-NH2], in series [6], the “Ki ratio μ/δ/κ” value was 1/3/12. Also, the DOR functional profile entry in series [7] (in words) is on record as “DOR full agonist”. Besides, in series [8] (IC35 given instead of IC50), the “GPI (μ) IC35” value is reported as 0.78 (IC35) nM. For the same compound, in series [8] (in words), the MOR functional profile entry is listed as “MOR partial agonist”.

As for `Cc1cc(O)cc(C)c1C[C@H](N)C(=O)N[C@H](CCCNC(=N)N)C(=O)N[C@H]1Cc2ccccc2CN(CC(N)=O)C1=O` [Peptide 20, H-Dmt-D-Arg-Aba-Gly-NH2, reference compound], the “Ki ratio μ/δ/κ” value in [9] was 1/4/787. Moreover, in series [1], the “Duration of antinociceptive action” value was 6 to 7 h, the “Time of peak effect” value came to 1 h and the “ED50 (95% confidence limits)” value is on record as 0.47 (0.18-1.2) μmol/kg. Also, in series [10], the 50% inhibitory concentration (IC50) was 0.32 nM. Besides, in series [11], the IC50 was 0.42 nM. For the same compound, the “Antinociceptive effect after i.p. injection, in words” value in series [2] was “slow and shallow antinociceptive response”. The “Vbr (brain distribution volume)” value in [4] came out at 24.01 ± 3.41 µL/g. In series [5], the Serum levels entry is “intermediate”. Besides, in series [5] ([125I]-peptide, mice, Figure 2), the “Tissue distribution (percentage of mass-corrected injected dose), in words” value is “higher kidney uptake”.

Take `C[C@@H](NC(=O)[C@@H](N)Cc1ccc(O)cc1)C(=O)N[C@@H](Cc1ccccc1)C(=O)NCC(=O)N[C@@H](Cc1ccc(O)cc1)C(=O)N1CCC[C@H]1C(=O)N[C@@H](CO)C(N)=O` [dermorphin, Tyr-D-Ala-Phe-Gly-Tyr-Pro-Ser-NH2, reference compound]: in series [2], the “Antinociceptive effect after i.p. injection, in words” value is “inability of dermorphin to induce a significant antinociceptive effect”. Besides, in [4] (I-125 labelled control, over 15 minutes for dermorphin), the “mean influx transfer constant (mean Kin)” value is 0.173 ± 0.137 µL/g/min.

endomorphin-1: the “t1/2 in mouse plasma” value in series [12] is 4 to 7 min.

As to endomorphin-2, the “t1/2 in mouse plasma” value in [12] is 4 to 7 min.
